According to patent US9682960B2 (priority 2013, dated 2017):
Read-outs that look alike come from different tables or passages of the source.

Columns and labels:
Human Androgen Receptor = Human Androgen Receptor (Homo sapiens (Human), UniProt P10275); test: Androgen receptor assay: [3H]R1881 displacement, cytosol of HEK-293 cells transfected with hAR (hydroxylapatite assay); format: binding; conditions: for times more potent than OH-flutamide on the human AR (RBA ratio): versus hydroxyflutamide
[1] = tested on: Shionogi mouse mammary carcinoma cells; test: In vitro androgenic/antiandrogenic activity: proliferation of Shionogi cells with or without DHT; format: cell-based; conditions: for fold more potent than OH-flutamide in reversing DHT-stimulated Shionogi cell proliferation: versus hydroxyflutamide; for stimulation at 10^−7M on basal Shionogi cell proliferation (in words): basal (no DHT)
[2] = tested on: castrated (CX) immature male rats; test: Systemic androgenic (agonistic) activity in orchidectomized (CX) immature male rats; format: in vivo, rat; conditions: 0.1 mg/rat/po, 7 days; for CX Agonistic activity % Stimulation Bulbo: bulbocavernosus muscles weight; for CX Agonistic activity % Stimulation SV: seminal vesicles weight; for CX Agonistic activity % Stimulation Prostate: ventral prostate weight
Protocol: Immature male rats (Crl:CD(SD)Br) 22 to 24-day old weighting 60-80 g at start of treatment were obtained from Charles-River, Inc. (St-Constant, Quebec, Canada) and housed up to 5 per cage in plastic bins in a temperature (23±1° C.)- and light (12 h light/day, lights on at 7 h15)-controlled environment. The rats were fed rodent chow and tap water ad libitum. […] The day following their arrival, the designed animals were orchidectomized (CX) under Isoflurane anesthesia (Study Day 1) via the scrotal route and were then randomly assigned to groups of 3 to 5 animals. At the time of orchidectomy, one silastic implant of dihydrotestosterone (DHT; 1 cm length of pure DHT in silastic tubing having inner and outer diameter of 0.078 and 0.125 inches, respectively), was inserted subcutaneously in the dorsal area of animals assigned to the evaluation of antiandrogenic activity. In the case of intact animal experiments, the orchidectomy and the silastic implant installation are omitted.
Tested compounds were administered orally once daily for 7 days from Study Day 2 to Study Day 8 at doses generally ranging from 0.1 and 0.5 mg/animal. Compounds were either solubilized in dimethylsulfoxide (DMSO, 10% final concentration) and were administered as a solution/suspension in 0.9% NaCl-1% gelatin or were administered as suspensions in 0.4% aqueous methylcellulose. Animals of the control groups received the corresponding vehicle alone during the 7-day period. Some animals were treated with the antiandrogen Flutamide or Casodex as reference. The animals under isoflurane anesthesia were killed by cervical dislocation on day 9 of the study, approximately 24 h after the last dosing. The ventral prostate, seminal vesicles and bulbocavernosus muscles were rapidly dissected and weighed.
For calculations with intact animals, control DHT is replaced by control intact and the % stimulation is subtracted by 100%. W is the weight of the prostate, seminal vesicles or bulbocavernosus muscles. Discussion

[3] = relative binding affinity, R1881 = 100, transfected cells
[4] = Mus musculus, read-out: Shionogi Antiandrogenic Activity IC50, DHT (0.3 nM)-stimulated cell number
[5] = Mus musculus, DHT (0.3 nM)-stimulated cell number, read-out: Shionogi Antiandrogenic Activity IC50
[6] = relative binding affinity, R1881 = 100, […]
[7] = read-out: Shionogi Antiandrogenic Activity IC50, DHT (0.3 nM)-stimulated cell number

Human Androgen Receptor, sequence (P10275 whole entry): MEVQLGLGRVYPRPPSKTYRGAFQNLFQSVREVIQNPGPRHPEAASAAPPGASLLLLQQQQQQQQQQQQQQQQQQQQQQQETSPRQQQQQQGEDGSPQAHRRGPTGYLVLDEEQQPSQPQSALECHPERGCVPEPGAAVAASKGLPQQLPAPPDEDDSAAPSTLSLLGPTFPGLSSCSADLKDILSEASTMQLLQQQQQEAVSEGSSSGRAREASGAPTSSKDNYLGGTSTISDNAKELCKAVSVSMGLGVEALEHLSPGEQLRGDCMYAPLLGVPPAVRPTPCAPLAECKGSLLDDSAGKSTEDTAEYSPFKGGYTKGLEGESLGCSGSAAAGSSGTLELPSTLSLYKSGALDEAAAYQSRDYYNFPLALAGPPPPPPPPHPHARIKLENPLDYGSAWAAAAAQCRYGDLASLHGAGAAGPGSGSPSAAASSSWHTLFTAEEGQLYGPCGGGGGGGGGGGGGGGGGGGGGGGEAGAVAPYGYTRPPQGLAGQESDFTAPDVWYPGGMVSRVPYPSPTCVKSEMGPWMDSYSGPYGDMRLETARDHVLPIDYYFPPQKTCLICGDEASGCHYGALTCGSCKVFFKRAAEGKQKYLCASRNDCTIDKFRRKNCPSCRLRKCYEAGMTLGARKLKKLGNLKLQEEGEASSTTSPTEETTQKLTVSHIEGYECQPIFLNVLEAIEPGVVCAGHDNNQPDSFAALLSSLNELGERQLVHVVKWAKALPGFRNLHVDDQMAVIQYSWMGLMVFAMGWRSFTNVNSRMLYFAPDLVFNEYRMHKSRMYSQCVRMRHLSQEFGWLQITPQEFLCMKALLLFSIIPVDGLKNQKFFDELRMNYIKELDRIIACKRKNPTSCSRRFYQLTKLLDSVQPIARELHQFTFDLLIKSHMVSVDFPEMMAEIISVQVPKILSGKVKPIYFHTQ

Compound | Human Androgen Receptor Binding RBA (%) R1881 = 100 (Human Androgen Receptor; [3]) | IC50 [1, 4] [nM] | Human Androgen Receptor Binding RBA (%) R1881 = 100 (Human Androgen Receptor; [6]) | also measured
CC1(C)C(=O)N(c2ccc(C#N)c(C(F)(F)F)c2)C(=O)N1CCCOc1ccc(-c2ccncc2)c(F)c1 [EM-9066] | 10.3 ± 1.3 (n = 2) % | 11 ± 4 | – | –
CC1(C)C(=O)N(c2ccc(C#N)c(C(F)(F)F)c2)C(=O)N1c1ccc(-c2ccncc2)cc1 [EM-9340] | 0.2% | – | – | IC50 [1, 5]: 126 nM
CC1(C)C(=O)N(c2ccc(C#N)c(C(F)(F)F)c2)CC(=O)N1CCCOc1ccc(-c2ccncc2)cc1 [EM-9126] | – | 173 | <0.1% | –
CC1(C)C(=O)N(c2ccc(C#N)c(C(F)(F)F)c2)C(=O)N1Cc1ccc(-c2ccncc2)cc1 [EM-9199] | 2.3% | 27 | – | –
CC1(C)C(=O)N(c2ccc(C#N)c(C(F)(F)F)c2)C(=O)N1CCCOc1ccc(-c2ccncc2)nc1 [EM-9111] | – | 19 | 1.0 ± 0.0 (n = 2) % | –
CC1(C)C(=O)N(c2ccc(C#N)c(C(F)(F)F)c2)C(=S)N1CCCOc1cccc(-c2ccncc2)c1 [EM-8871] | – | 66 | 558 ± 102 (n = 2) % | –
CC1(C)C(=O)N(c2ccc(C#N)c(C(F)(F)F)c2)C(=S)N1CCCOc1ccc(-c2ccncc2)cc1F [EM-8872] | – | 36 | 723 ± 59 (n = 2) % | –
Cc1c(N2C(=O)N(c3ccc(-c4cccnc4)cc3)C(C)(C)C2=O)ccc(C#N)c1C(F)(F)F [EM-9342] | 0.4% | 66 | – | –
CC1(C)C(=O)N(c2ccc(C#N)c(C(F)(F)F)c2)C(=S)N1CCCOc1ccc(-c2cc[n+]([O-])cc2)cc1 [EM-8929] | 100 ± 12 (n = 2) % | – | – | IC50 [1, 7]: 17 ± 10 nM
CC1(C)C(=O)N(c2ccc(C#N)c(Cl)c2)C(=O)N1CCCOc1ccc(-c2cc[n+]([O-])cc2)cc1F [EM-9226] | – | 23 | 2.4% | –
CC1(C)C(=O)N(c2ccc(C#N)c(C(F)(F)F)c2)C(=O)N1CCCOc1ccc(-c2ccncc2)c(C(F)(F)F)c1 [EM-9089] | 2.0% | 49 | – | –
Cc1c(N2C(=O)N(c3ccc(-c4ccncc4)cc3)C(C)(C)C2=O)ccc(C#N)c1C(F)(F)F [EM-9344] | – | 51 | 0.8% | –
CC1(C)C(=O)N(c2ccc(C#N)c(Cl)c2)C(=O)N1CCCOc1ccc(-c2ccncc2)cc1F [EM-9198] | – | 5.3 | 22% | times more potent than OH-flutamide on the human AR (RBA ratio) (Human Androgen Receptor): 105 times; fold more potent than OH-flutamide in reversing DHT-stimulated Shionogi cell proliferation [1]: 6.4 fold
CC1(C)C(=O)N(c2ccc(C#N)c(C(F)(F)F)c2)C(=S)N1CCCOc1ccc(-c2ccncc2)c(Cl)c1 [EM-8888] | 1880 ± 1040 (n = 2) % | – | – | IC50 [1, 5]: 111 nM
Cc1c(N2C(=O)N(CCCOc3ccc(-c4ccncc4)c(F)c3)C(C)(C)C2=O)ccc(C#N)c1F [EM-9205] | 17.9% | 14.8 | – | times more potent than OH-flutamide on the human AR (RBA ratio) (Human Androgen Receptor): 85 times; fold more potent than OH-flutamide in reversing DHT-stimulated Shionogi cell proliferation [1]: 2.3 fold
Cc1c(N2C(=O)N(CCOc3ccc(-c4cc[n+]([O-])cc4)cc3)C(C)(C)C2=O)ccc(C#N)c1Cl [EM-9339] | – | – | 4.0% | CX Agonistic activity % Stimulation Bulbo [2]: 68%; CX Agonistic activity % Stimulation SV [2]: 12%; CX Agonistic activity % Stimulation Prostate [2]: 27%
CC1(C)C(=O)N(c2ccc(C#N)c(C(F)(F)F)c2)C(=S)N1CCCOc1ccc(CN2CCC(O)C2)cc1 (stereo not drawn) [EM-7365, reference compound] | 24% | – | – | IC50 ([1]; DHT (0.3 nM)-stimulated cell number, read-out: Shionogi Antiandrogenic Activity IC50): 6 nM
Cc1c(N2C(=O)N(CCCOc3ccc(-c4ccncc4)cc3F)C(C)(C)C2=O)ccc(C#N)c1F [EM-9204] | 22% | – | – | –
Cc1c(N2C(=O)N(Cc3ccc(-c4ccncc4)cc3)C(C)(C)C2=O)ccc(C#N)c1Cl [EM-9343] | – | 21 | 6.1% | –
CC1(C)C(=O)N(c2ccc(C#N)c(Cl)c2)C(=S)N1CCCOc1ccc(-c2cccnc2)cc1 [EM-9049] | – | 6.8 | 269% | –

Compound | Human Androgen Receptor Binding RBA (%) R1881 = 100 (Human Androgen Receptor; [3]) | IC50 [1, 4] [nM] | Human Androgen Receptor Binding RBA (%) R1881 = 100 (Human Androgen Receptor; [6]) | also measured
CC1(C)C(=O)N(c2ccc(C#N)c(C(F)(F)F)c2)C(=O)N1CCOc1ccc(-c2cc[n+]([O-])cc2)cc1 [EM-9180] | 1.7% | 24 | – | –
CC1(C)C(=O)N(c2ccc(C#N)c(Cl)c2)C(=S)N1CCCOc1ccc(-c2ccncc2)cc1 [EM-9039] | – | 2.6 to 4.3 | 762 ± 396 (n = 2) % | stimulation at 10^−7M on basal Shionogi cell proliferation (in words) [1]: none of these compounds has any activity; IC50 [1, 7]: 4.3 nM
CC1(C)C(=O)N(c2ccc(C#N)c(C(F)(F)F)c2)C(=S)N1CCCOc1ccc(-c2ccncc2)c(C(F)(F)F)c1 [EM-8890] | 59 ± 25 (n = 2) % | 13.2 | – | –
CC1(C)C(=O)N(c2ccc(C#N)c(F)c2)C(=S)N1CCCOc1ccc(-c2ccncc2)cc1 [EM-9025] | 39% | – | – | stimulation at 10^−7M on basal Shionogi cell proliferation (in words) [1]: none of these compounds has any activity
COc1cc(-c2ccncc2)ccc1OCCCN1C(=O)N(c2ccc(C#N)c(Cl)c2)C(=O)C1(C)C [EM-9261] | – | 27 | 2.5% | –
CC1(C)C(=O)N(c2ccc(C#N)c(C(F)(F)F)c2)C(=S)N1CCCOc1ccc(-c2ccncc2)cc1 [EM-8841] | – | 73 ± 5 | 1200 ± 330 (n = 2) % | –
Cc1c(N2C(=O)N(CCCCc3ccc(-c4ccncc4)cc3)C(C)(C)C2=O)ccc(C#N)c1Cl [EM-9336] | – | – | 32.3% | CX Agonistic activity % Stimulation Bulbo [2]: 59%; CX Agonistic activity % Stimulation SV [2]: 8%; CX Agonistic activity % Stimulation Prostate [2]: 27%
Cc1ccc(-c2ccc(OCCCN3C(=S)N(c4ccc(C#N)c(C(F)(F)F)c4)C(=O)C3(C)C)cc2)cn1 [EM-8908] | – | 50 | 944 ± 265 (n = 2) % | –
CC1(C)C(=O)N(c2ccc(C#N)c(C(F)(F)F)c2)C(=O)N1CCCOc1ccc(-c2cc[n+]([O-])cc2)cc1 [EM-9000] | – | 20 ± 10 | 1.5 ± 0.3 (n = 2) % | –
CC1(C)C(=O)N(c2ccc(C#N)c(C(F)(F)F)c2)C(=S)N1CCCOc1ccc(-c2cccnc2)cc1 [EM-8840] | – | 24 ± 6 | 1090 ± 500 (n = 2) % | –
CC1(C)C(=O)N(c2ccc(C#N)c(Cl)c2)C(=S)N1CCCOc1ccc(-c2cc[n+]([O-])cc2)c(F)c1 [EM-9119] | – | 12.1 ± 0.5 | 122% | –
Cc1c(N2C(=O)N(Cc3ccc(-c4cc[n+]([O-])cc4)cc3)C(C)(C)C2=O)ccc(C#N)c1Cl [EM-9345] | 0.5% | ~80 | – | –
CC1(C)C(=O)N(c2ccc(C#N)c(C(F)(F)F)c2)C(=S)N1CCCOc1ccc(-c2ccncc2)nc1 [EM-9092] | 72% | 11.2 | – | –
Cc1cc(OCCCN2C(=O)N(c3ccc(C#N)c(Cl)c3)C(=O)C2(C)C)ccc1-c1cc[n+]([O-])cc1 [EM-9221] | – | 10.6 | 2.7% | –
Cc1c(N2C(=O)N(CCOc3ccc(-c4ccncc4)cc3)C(C)(C)C2=O)ccc(C#N)c1Cl [EM-9337] | – | – | 28.3% | CX Agonistic activity % Stimulation Bulbo [2]: 95%; CX Agonistic activity % Stimulation SV [2]: 17%; CX Agonistic activity % Stimulation Prostate [2]: 33%
CC1(C)C(=O)N(c2ccc(C#N)c(Cl)c2)C(=O)N1CCCOc1ccc(-c2ccncc2)cc1Cl.Cl [EM-9287] | – | – | 125 ± 9 (n = 3) % | –
CC(C)(O)C(=O)Nc1ccc([N+](=O)[O-])c(C(F)(F)F)c1 [OH-FLU, hydroxyflutamide, reference compound] | 0.21 ± 0.09 (n = 3) % | – | – | Human Androgen Receptor Binding RBA (%) R1881 = 100 (Human Androgen Receptor; relative binding affinity, R1881 = 100, transfected cells, listed as hydroxyflutamide): 0.21%
CC1(C)C(=O)N(c2ccc(C#N)c(Cl)c2)C(=O)N1CCCOc1ccc(-c2cc[n+]([O-])cc2)cc1Cl.Cl [EM-9288] | – | – | 24 ± 8 (n = 2) % | –
CC1(C)C(=O)N(c2ccc(C#N)c(Cl)c2)C(=O)N1CCCOc1ccc(-c2cc[n+]([O-])cc2)cn1 [EM-9225] | – | – | – | Human Androgen Receptor Binding RBA (%) R1881 = 100 (Human Androgen Receptor): 0.8%
Cc1c(N2C(=O)N(CCCOc3ccc(-c4cc[n+]([O-])cc4)c(F)c3)C(C)(C)C2=O)ccc(C#N)c1F [EM-9208] | 2.2% | – | – | –
